From patent US8715949B2, “Applications of the binding interaction of proanthocyanidins with bacteria and bacterial components” (priority 2006, dated 2014)

Assays:
[1] = Stationary LPS-FITC binding assay on glass waveguide-immobilized PACs; design: species or system E. coli; conditions: patterned from 10 mg/mL solutions; LPS-FITC incubated 1 hour
Excerpt: To determine the ability of PAC materials to effectively bind bacteria and bacterial cell components upon immobilization to a solid support, PACs from cranberry and grape juices were covalently attached to the surface of a glass microscope slide (waveguide) using a modification of a common technique used for protein immobilization (Rowe et al., Anal. Chem., 71, 3846 (1999)). Catechin monomer and buffer only areas were also included as controls. Briefly, the waveguides, glass microscope slides (Daigger, Wheeling, Ill.), were cleaned by immersion in potassium hydroxide/methanol solution (Cras et al., Biosens. Bioelectron., 14, 683 (1999)) followed by rinsing and drying. The clean waveguides were then incubated with 2% (3-mercaptopropyl)triethoxysilane (Pierce Chemicals, Rockford, Ill.) in toluene for 45 minutes followed by rinsing and drying. The slides were immersed in 1.8 mM N-[p-maleimidophenyl]isocyanate (PMPI) in ethanol for 1 hour. The maleimide-group of PMPI reacts with the sulfhydryl-group provided by the silane reaction leaving the isocyanate-group free to react with the hydroxyl-groups of PACs. […]
The ability of the immobilized PACs to bind LPS was investigated using a stationary assay. […] Slides were imaged using evanescent wave fluorescence spectroscopy with excitation at 496 nm and emission collected above 515 nm. […]

[2] = Pull-down of FITC-LPS by PAC beads after equilibration with lipid A; type: binding, E. coli; conditions: lipid A concentrations as high as 100 μM
Method: Fluorescence-based pull down assays for lipopolysaccharide (LPS) were conducted in 50 mM TRIS at pH 8.0 using Sepharose-immobilized PACs and agarose-immobilized polymyxin B (Sigma-Aldrich, St. Louis, Mo.). Immobilized capture molecules and LPS were incubated at room temperature for 1 hour with constant agitation followed by rinsing and transfer to a 96-well plate. The fluorescence of the FITC-labeled LPS (from E. coli 055:B5; Sigma-Aldrich) was measured using a Tecan XSafire monochrometer-based micro plate reader at 495 nm excitation and 520 nm emission (5 nm bandwidths).
To further investigate this potential interaction, an assay for the presence of FITC-LPS using PAC-beads was conducted after equilibration of the PAC beads with varying concentrations of lipid A (FIG. 11). Assays were conducted with 3 μg/mL FITC-LPS (approx. 3 nM).

[3] = tested on: HEK 293 cells stably expressing human CD14 and TLR4/MD2; assay: LPS membrane binding in HEK-CD14-TLR4/MD2 cells; type: cell-based; conditions: 25 nM LPS, 1.5 h, 37° C.; 0.5 μM PAC; antibodies 500 nM in binding sites
Method: Human embryonic kidney cells (HEK 293) stably expressing human CD14 and TLR4/MD2 (HEK-CD14-TLR4/MD2; Invivogen) were grown in chambered wells and incubated with 25 nM LPS (E. coli serotype 055:B5, Sigma) in the absence or presence of 0.5 μM LH20 PAC (Dial>6K) for 1.5 h at 37° C. […] After incubation, the cells were washed with PBS (10 min) twice and either fixed (with 3.7% paraformaldehyde) to assess LPS membrane binding or fixed and permeabilized (with 0.1% Triton X-100) to determine LPS internalization. After blocking with 1% normal goat serum, membrane bound or internalized LPS was detected using a goat anti-LPS antibody (O/K serotype-specific, Abeam) conjugated to fluorescein. Nuclei were counterstained with DAPI. Imaging was performed using an Olympus IX-71 microscope. The relative amounts of membrane-associated or intracellular fluorescence were quantified by image analysis using Image J software (NIH, v. 1.37). Data is reported as the mean channel fluorescence from membrane-associated or internalized LPS and represents the analysis of 10 to 20 cells from each sample (minimum 10 measurements per each cell). Merged images were produced using Photoshop CS2 (ver. 9).

HEK-CD14-TLR4/MD2 cells = assay: Cytotoxicity, cell proliferation assay (CellTiter96); type: cell-based, human; conditions: 48 h culture
Method: Cellular toxicity was measured using a […] cell proliferation assay (CellTiter96™, Promega). HEK-CD14-TLR4/MD2 cells were seeded into the wells of a 96-well plate (1×10^4 cells/well) and cultured with a dose range of test compounds for 48 h prior to assay according to the manufacturer's instructions.

Substance	binding of LPS-FITC by substance immobilized on glass waveguide [1]	inhibition of FITC-LPS binding by immobilized PACs at high lipid A concentration [2]	decrease in membrane-bound LPS [3]	concentrations at which toxicity was not elicited (HEK-CD14-TLR4/MD2 cells)
catechin	no binding even at the highest concentrations tested			
diphosphoryl lipid A		≤ 80%	did not significantly reduce LPS membrane binding	below 3 μM
